From US20090304818A1, “METHOD OF TREATMENT” (priority 2005, published 2009)

System: sepsis in conscious sheep
Assay: Ang II infusion in E. coli-induced sepsis in conscious sheep (FIG. 1)
Format: in vivo
Conditions: sepsis + Ang II infusion period, four conscious sheep
Description: Seven female Merino ewes weighing between 34.2 kg and 47.3 kg were procured for chronic instrumentation. The sheep were held and studied in metabolic cages, with free access to food and water. The animals underwent two separate operative procedures. For all procedures, anaesthesia was induced with sodium thiopentone (15 mg/kg) for endotracheal tube placement (cuff size 10). Maintenance anaesthesia was by means of oxygen/air/isoflurane (1 to 2%). Fractional inspired oxygen was altered to maintain PaO2 at approximately 100 mm Hg, and ventilation was controlled to maintain PaCO2 at approximately 40 mm Hg.
First, a left-sided thoracotomy was performed. The pericardium was opened, and a transit time flow probe (20 mm, Transonics Systems, Ithaca, N.Y.) was placed around the pulmonary artery to measure cardiac output. After two weeks recovery, a left-sided flank incision was made and a retroperitoneal dissection was performed to expose the left renal artery. […]
Analog signals of mean arterial pressure (MAP), central venous pressure (CVP), cardiac output (CO), and renal blood flow (RBF) were collected using a PC using a customized data acquisition system (Labview National Instruments). Data were recorded at 100 Hz for 10 s at every minute throughout the experimental protocol. Total peripheral conductance (TPC) (cardiac output/mean arterial pressure) and renal vascular conductance (RVC) (renal blood flow/mean arterial pressure) were calculated.
During the experimental periods MAP, CVP, CO, RBF and heart rate were measured continuously. Following a 12-hour baseline period, sheep were monitored for a 48 hour control period. After 7 days, sheep were monitored for a 2nd baseline period, followed by induction of sepsis by intravenous administration of a bolus of live E. coli (3.9×10^9 colony forming units in 15 mL saline), followed by a continuous infusion ([…] at 5 mL/h) for 48 h. […]
In both treatments, after the 12-hour baseline period, normal saline (1 mL/kg/h) was infused to avoid hypovolemia. Urinary output was measured and urine sampled every 90 minutes. […]

angiotensin II (DRVYIHPF; Angiotensin-2; UniProt P01019 25-32, looked up) [Ang II, vasoconstricting agent with preferential action on the efferent arteriole of the glomerulus; acts at the AT-1 receptor]
return these variables to normal: renal blood flow (increased in sepsis) | mean arterial pressure (reduced in sepsis) | urine output (reduced in sepsis)
